Results from ChEMBL document CHEMBL5723582, “Data for DCP probe T-10430” (2024).

Key:
Conditions in all cases: Compound concentration 1.0 uM
[1] = molecular target: Probable G-protein coupled receptor 174 (Homo sapiens) (UniProt Q9BXC1); test: RLU of GPR174 at 1.0 µM in the […] PRESTO-Tango GPCRome screen
[2] = molecular target: Neuropeptides B/W receptor type 1 (Homo sapiens) (UniProt P48145); test: RLU of NPBW1 at 1.0 µM in the […] PRESTO-Tango GPCRome screen
[3] = molecular target: Somatostatin receptor type 4 (Homo sapiens) (UniProt P31391); test: RLU of SSTR4 at 1.0 µM in the […] PRESTO-Tango GPCRome screen
[4] = molecular target: Beta-3 adrenergic receptor (Homo sapiens) (UniProt P13945); test: RLU of ADRB3 at 1.0 µM in the […] PRESTO-Tango GPCRome screen
[5] = molecular target: Prostaglandin D2 receptor (Homo sapiens) (UniProt Q13258); test: RLU of PTGDR at 1.0 µM in the […] PRESTO-Tango GPCRome screen
[6] = molecular target: Muscarinic acetylcholine receptor M2 (Homo sapiens) (UniProt P08172); test: RLU of CHRM2 at 1.0 µM in the […] PRESTO-Tango GPCRome screen
[7] = molecular target: Adhesion G protein-coupled receptor A1 (Homo sapiens) (UniProt Q86SQ6); test: RLU of GPR123 at 1.0 µM in the […] PRESTO-Tango GPCRome screen
[8] = molecular target: G-protein coupled receptor 135 (Homo sapiens) (UniProt Q8IZ08); test: RLU of GPR135 at 1.0 µM in the […] PRESTO-Tango GPCRome screen
[9] = molecular target: Histamine H4 receptor (Homo sapiens) (UniProt Q9H3N8); test: RLU of HRH4 at 1.0 µM in the Aequorin PRESTO-Tango GPCRome screen
[10] = molecular target: Relaxin-3 receptor 1 (Homo sapiens) (UniProt Q9NSD7); test: RLU of RXFP3 at 1.0 µM in the […] PRESTO-Tango GPCRome screen
[11] = molecular target: Growth hormone secretagogue receptor type 1 (Homo sapiens) (UniProt Q92847); test: RLU of GHSR at 1.0 µM in the […] PRESTO-Tango GPCRome screen
[12] = molecular target: Adenosine receptor A3 (Homo sapiens) (UniProt P0DMS8); test: RLU of ADORA3 at 1.0 µM in the […] PRESTO-Tango GPCRome screen
[13] = molecular target: Somatostatin receptor type 5 (Homo sapiens) (UniProt P35346); test: RLU of SSTR5 at 1.0 µM in the […] PRESTO-Tango GPCRome screen
[14] = molecular target: Adhesion G-protein coupled receptor G6 (Homo sapiens) (UniProt Q86SQ4); test: RLU of GPR126 at 1.0 µM in the […] PRESTO-Tango GPCRome screen
[15] = molecular target: Growth hormone-releasing hormone receptor (Homo sapiens) (UniProt Q02643); test: RLU of GHRHR at 1.0 µM in the […] PRESTO-Tango GPCRome screen
[16] = molecular target: G-protein coupled receptor 183 (Homo sapiens) (UniProt P32249); test: RLU of GPR183 at 1.0 µM in the […] PRESTO-Tango GPCRome screen
[17] = molecular target: Orexin receptor type 1 (Homo sapiens) (UniProt O43613); test: RLU of HCTR1 at 1.0 µM in the Aequorin PRESTO-Tango GPCRome screen
[18] = molecular target: Galanin receptor type 3 (Homo sapiens) (UniProt O60755); test: RLU of GAL3 at 1.0 µM in the […] PRESTO-Tango GPCRome screen
[19] = molecular target: Alpha-1D adrenergic receptor (Homo sapiens) (UniProt P25100); test: RLU of ADRA1D at 1.0 µM in the […] PRESTO-Tango GPCRome screen
[20] = molecular target: Lysophosphatidic acid receptor 1 (Homo sapiens) (UniProt Q92633); test: RLU of LPAR1 at 1.0 µM in the […] PRESTO-Tango GPCRome screen
[21] = molecular target: Sphingosine 1-phosphate receptor 2 (Homo sapiens) (UniProt O95136); test: RLU of S1PR2 at 1.0 µM in the […] PRESTO-Tango GPCRome screen
[22] = molecular target: N-formyl peptide receptor 3 (Homo sapiens) (UniProt P25089); test: RLU of FPR3 at 1.0 µM in the […] PRESTO-Tango GPCRome screen
[23] = molecular target: Adhesion G-protein coupled receptor G1 (Homo sapiens) (UniProt Q9Y653); test: RLU of GPR56 at 1.0 µM in the […] PRESTO-Tango GPCRome screen
[24] = molecular target: C-C chemokine receptor type 3 (Homo sapiens) (UniProt P51677); test: RLU of CCR3 at 1.0 µM in the […] PRESTO-Tango GPCRome screen
[25] = molecular target: G-protein coupled receptor family C group 5 member C (Homo sapiens) (UniProt Q9NQ84); test: RLU of GPRC5C at 1.0 µM in the […] PRESTO-Tango GPCRome screen
[26] = molecular target: 5-hydroxytryptamine receptor 4 (Homo sapiens) (UniProt Q13639); test: RLU of HTR4 at 1.0 µM in the […] PRESTO-Tango GPCRome screen
[27] = molecular target: 5-hydroxytryptamine receptor 1A (Homo sapiens) (UniProt P08908); test: RLU of HTR1A at 1.0 µM in the Aequorin PRESTO-Tango GPCRome screen
[28] = molecular target: Probable G-protein coupled receptor 34 (Homo sapiens) (UniProt Q9UPC5); test: RLU of GPR34 at 1.0 µM in the […] PRESTO-Tango GPCRome screen
[29] = molecular target: Metabotropic glutamate receptor 1 (Homo sapiens) (UniProt Q13255); test: RLU of GRM1 at 1.0 µM in the Aequorin PRESTO-Tango GPCRome screen
[30] = molecular target: G-protein coupled receptor 78 (Homo sapiens) (UniProt Q96P69); test: RLU of GPR78 at 1.0 µM in the […] PRESTO-Tango GPCRome screen
[31] = molecular target: Thyrotropin receptor (Homo sapiens) (UniProt P16473); test: RLU of TSHR at 1.0 µM in the […] PRESTO-Tango GPCRome screen
[32] = molecular target: Probable G-protein coupled receptor 173 (Homo sapiens) (UniProt Q9NS66); test: RLU of GPR173 at 1.0 µM in the […] PRESTO-Tango GPCRome screen
[33] = molecular target: 5-hydroxytryptamine receptor 1B (Homo sapiens) (UniProt P28222); test: RLU of HTR1B at 1.0 µM in the Aequorin PRESTO-Tango GPCRome screen
[34] = molecular target: Cannabinoid receptor 2 (Homo sapiens) (UniProt P34972); test: RLU of CNR2 at 1.0 µM in the […] PRESTO-Tango GPCRome screen
[35] = molecular target: Adhesion G-protein coupled receptor F1 (Homo sapiens) (UniProt Q5T601); test: RLU of GPR110 at 1.0 µM in the […] PRESTO-Tango GPCRome screen

Chain of 5-hydroxytryptamine receptor 4 (Homo sapiens) (Q13639 whole entry): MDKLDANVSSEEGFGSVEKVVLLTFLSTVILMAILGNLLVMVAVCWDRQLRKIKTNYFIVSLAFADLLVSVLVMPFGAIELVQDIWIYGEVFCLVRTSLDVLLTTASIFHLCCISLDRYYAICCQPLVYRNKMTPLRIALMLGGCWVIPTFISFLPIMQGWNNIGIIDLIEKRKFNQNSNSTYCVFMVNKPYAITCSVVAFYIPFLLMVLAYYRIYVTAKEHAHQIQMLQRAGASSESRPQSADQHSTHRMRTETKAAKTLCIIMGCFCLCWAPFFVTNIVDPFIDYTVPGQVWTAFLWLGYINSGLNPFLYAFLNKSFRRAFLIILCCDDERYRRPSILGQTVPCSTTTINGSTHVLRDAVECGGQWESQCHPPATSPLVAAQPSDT
Chain of G-protein coupled receptor 183 (Homo sapiens) (P32249 whole entry): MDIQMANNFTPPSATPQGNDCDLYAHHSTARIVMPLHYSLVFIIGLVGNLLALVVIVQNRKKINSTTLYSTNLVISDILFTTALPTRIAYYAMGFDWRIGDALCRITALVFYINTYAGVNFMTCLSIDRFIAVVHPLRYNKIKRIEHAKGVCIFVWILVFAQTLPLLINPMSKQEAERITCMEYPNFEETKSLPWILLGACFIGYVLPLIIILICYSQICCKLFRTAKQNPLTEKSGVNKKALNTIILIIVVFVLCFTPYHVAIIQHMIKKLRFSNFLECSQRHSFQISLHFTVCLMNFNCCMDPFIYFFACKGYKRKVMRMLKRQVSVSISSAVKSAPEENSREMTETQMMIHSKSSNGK
Chain of Sphingosine 1-phosphate receptor 2 (Homo sapiens) (O95136 whole entry): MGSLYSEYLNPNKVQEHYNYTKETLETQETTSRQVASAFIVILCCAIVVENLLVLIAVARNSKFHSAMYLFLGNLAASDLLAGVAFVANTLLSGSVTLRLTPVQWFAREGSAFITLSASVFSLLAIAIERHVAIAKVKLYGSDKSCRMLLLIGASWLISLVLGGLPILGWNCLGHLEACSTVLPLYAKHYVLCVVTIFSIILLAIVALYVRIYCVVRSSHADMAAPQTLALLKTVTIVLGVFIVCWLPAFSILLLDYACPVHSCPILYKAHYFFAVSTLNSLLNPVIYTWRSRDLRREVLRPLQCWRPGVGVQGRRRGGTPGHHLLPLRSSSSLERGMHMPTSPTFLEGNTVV
Chain of Relaxin-3 receptor 1 (Homo sapiens) (Q9NSD7 whole entry): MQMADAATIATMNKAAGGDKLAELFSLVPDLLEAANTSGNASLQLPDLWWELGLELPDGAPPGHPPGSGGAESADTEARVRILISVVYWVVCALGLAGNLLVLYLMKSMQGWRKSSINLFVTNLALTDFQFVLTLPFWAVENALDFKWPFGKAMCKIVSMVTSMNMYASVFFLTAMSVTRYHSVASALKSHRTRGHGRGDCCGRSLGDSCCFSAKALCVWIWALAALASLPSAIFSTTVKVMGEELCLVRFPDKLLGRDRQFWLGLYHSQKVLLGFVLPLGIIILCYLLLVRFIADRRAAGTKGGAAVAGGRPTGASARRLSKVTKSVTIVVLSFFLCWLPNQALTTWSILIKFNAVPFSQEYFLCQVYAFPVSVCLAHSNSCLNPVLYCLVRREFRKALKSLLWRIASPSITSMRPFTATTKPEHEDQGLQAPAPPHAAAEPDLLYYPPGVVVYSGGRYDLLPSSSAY
Chain of Adenosine receptor A3 (Homo sapiens) (P0DMS8 whole entry): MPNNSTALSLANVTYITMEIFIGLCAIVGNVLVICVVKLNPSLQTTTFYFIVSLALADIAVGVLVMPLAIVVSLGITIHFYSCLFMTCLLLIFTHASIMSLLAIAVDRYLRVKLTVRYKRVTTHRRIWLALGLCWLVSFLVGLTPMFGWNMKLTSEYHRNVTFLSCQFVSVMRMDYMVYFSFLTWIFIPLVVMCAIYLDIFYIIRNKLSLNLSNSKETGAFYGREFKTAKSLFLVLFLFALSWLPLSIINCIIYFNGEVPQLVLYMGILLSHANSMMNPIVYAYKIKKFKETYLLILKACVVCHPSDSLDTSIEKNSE
Chain of Cannabinoid receptor 2 (Homo sapiens) (P34972 whole entry): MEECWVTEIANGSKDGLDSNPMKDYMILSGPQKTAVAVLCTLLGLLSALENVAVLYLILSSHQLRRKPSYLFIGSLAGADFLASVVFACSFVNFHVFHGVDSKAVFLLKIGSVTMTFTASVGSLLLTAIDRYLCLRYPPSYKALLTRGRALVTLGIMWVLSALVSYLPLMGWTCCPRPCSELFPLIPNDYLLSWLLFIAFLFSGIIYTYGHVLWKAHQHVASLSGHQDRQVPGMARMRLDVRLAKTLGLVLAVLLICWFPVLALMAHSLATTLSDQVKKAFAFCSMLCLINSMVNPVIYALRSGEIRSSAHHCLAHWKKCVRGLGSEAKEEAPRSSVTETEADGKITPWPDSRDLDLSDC
Chain of Thyrotropin receptor (Homo sapiens) (P16473 whole entry): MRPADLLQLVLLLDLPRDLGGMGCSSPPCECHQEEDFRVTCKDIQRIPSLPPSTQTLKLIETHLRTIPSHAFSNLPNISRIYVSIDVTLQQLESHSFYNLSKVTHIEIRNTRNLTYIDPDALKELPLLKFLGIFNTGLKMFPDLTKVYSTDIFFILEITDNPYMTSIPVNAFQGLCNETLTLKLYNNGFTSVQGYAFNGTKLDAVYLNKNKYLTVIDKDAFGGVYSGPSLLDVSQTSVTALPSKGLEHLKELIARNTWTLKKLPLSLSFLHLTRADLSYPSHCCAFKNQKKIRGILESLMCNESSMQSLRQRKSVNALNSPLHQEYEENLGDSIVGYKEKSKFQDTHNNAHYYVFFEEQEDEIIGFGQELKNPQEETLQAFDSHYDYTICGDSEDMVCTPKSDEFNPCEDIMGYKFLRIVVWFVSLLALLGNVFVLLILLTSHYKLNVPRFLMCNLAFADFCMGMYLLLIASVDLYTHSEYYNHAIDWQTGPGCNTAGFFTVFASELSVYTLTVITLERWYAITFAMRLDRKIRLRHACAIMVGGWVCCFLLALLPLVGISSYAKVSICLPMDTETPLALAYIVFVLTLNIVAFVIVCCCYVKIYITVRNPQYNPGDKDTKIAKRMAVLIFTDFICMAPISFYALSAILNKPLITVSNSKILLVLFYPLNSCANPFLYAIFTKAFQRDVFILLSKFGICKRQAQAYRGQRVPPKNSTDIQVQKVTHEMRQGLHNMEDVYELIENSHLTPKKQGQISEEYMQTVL
Chain of 5-hydroxytryptamine receptor 1A (Homo sapiens) (P08908 whole entry): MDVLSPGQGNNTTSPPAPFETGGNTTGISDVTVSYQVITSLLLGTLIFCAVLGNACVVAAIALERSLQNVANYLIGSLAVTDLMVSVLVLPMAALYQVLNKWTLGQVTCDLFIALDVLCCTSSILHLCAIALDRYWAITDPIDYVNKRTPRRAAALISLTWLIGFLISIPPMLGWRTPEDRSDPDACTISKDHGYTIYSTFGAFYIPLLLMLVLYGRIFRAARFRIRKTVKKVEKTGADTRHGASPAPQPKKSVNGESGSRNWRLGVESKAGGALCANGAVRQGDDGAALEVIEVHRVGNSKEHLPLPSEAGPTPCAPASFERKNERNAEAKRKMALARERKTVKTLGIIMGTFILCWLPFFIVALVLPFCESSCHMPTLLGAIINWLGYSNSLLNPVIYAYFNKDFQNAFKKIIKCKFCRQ
Chain of Orexin receptor type 1 (Homo sapiens) (O43613 whole entry, looked up): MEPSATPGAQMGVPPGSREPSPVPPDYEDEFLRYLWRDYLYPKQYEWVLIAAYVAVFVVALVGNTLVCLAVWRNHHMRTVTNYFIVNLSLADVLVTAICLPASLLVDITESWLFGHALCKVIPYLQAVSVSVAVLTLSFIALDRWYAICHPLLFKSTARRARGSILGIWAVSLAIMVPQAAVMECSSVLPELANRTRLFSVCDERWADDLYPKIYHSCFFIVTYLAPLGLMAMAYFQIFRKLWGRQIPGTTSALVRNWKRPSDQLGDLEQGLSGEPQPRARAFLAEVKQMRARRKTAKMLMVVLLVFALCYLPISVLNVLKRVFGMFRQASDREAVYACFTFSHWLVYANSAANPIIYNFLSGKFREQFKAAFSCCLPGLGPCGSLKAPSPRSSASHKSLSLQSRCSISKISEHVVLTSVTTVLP
Chain of Probable G-protein coupled receptor 174 (Homo sapiens) (Q9BXC1 whole entry): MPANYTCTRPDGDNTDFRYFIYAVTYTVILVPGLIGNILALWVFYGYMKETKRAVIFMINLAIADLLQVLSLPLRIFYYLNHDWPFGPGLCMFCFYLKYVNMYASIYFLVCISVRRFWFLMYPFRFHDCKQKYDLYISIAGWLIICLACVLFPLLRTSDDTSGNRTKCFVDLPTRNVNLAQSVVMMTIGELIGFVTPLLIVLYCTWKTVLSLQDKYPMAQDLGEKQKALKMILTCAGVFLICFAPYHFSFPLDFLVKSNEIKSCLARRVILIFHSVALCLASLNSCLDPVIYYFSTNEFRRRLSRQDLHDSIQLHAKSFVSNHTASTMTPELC
Chain of Lysophosphatidic acid receptor 1 (Homo sapiens) (Q92633 whole entry): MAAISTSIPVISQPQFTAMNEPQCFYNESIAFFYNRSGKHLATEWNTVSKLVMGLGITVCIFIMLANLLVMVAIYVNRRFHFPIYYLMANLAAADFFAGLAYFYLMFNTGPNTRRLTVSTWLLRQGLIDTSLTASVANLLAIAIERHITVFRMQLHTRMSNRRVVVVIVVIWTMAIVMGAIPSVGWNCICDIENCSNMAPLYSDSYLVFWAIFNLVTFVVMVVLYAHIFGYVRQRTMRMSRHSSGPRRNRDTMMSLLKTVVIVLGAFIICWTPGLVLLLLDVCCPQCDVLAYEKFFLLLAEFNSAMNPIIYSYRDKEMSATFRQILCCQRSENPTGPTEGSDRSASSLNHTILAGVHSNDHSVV
Chain of Probable G-protein coupled receptor 173 (Homo sapiens) (Q9NS66 whole entry): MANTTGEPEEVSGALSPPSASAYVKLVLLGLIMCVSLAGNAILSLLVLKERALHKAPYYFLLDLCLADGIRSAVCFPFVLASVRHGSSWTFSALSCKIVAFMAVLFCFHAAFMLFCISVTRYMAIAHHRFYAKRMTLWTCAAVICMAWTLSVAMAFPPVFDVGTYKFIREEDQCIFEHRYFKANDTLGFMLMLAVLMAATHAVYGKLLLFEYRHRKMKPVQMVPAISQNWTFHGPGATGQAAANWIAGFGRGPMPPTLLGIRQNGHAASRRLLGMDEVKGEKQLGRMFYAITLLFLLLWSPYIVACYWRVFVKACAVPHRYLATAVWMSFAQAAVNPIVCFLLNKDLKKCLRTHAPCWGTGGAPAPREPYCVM

Compound: CCCCC(=O)N1CC2(C1)CN(c1ccccc1-c1nnn[nH]1)C2
- RLU [1]: -102
- RLU [2]: 4940
- RLU [3]: 120
- RLU [4]: 12400
- RLU [5]: 375
- RLU [6]: -12800
- RLU [7]: 2100
- RLU [8]: 2860
- RLU [9]: -637
- RLU [10]: 6610
- RLU [11]: 1260
- RLU [12]: 506
- RLU [13]: -946
- RLU [14]: -6500
- RLU [15]: -1060
- RLU [16]: -6100
- RLU [17]: -2840
- RLU [18]: -1500
- RLU [19]: 2940
- RLU [20]: 280
- RLU [21]: 401
- RLU [22]: 2840
- RLU [23]: 14100
- RLU [24]: 2420
- RLU [25]: 3560
- RLU [26]: -2330
- RLU [27]: 1530
- RLU [28]: 5570
- RLU [29]: -511
- RLU [30]: 5.41
- RLU [31]: -406
- RLU [32]: -36.4
- RLU [33]: 77.2
- RLU [34]: 4360
- RLU [35]: 9360
